What all share (format): cell-based
Data set [1] has as its system AGS cell strain. Description: Effect on cell cycle (propidium iodide staining, FACS, sub G1). The settings on record: for Relative Sub G1: mimic 10 nM, 10 uM 5-FU 24 h after transfection, then 48 hours, relative to scrambled control (=1). Summed up:
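AGS gastric cells (EBV-negative), 2×10^5 per well, were transfected with synthetic miRNA (10 nM). DNA was stained with propidium iodide, and the cell-cycle-altered fraction was measured by FACS.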

Data set [2] deals with AGS cell strain. Kind of data set: Measurement of apoptosis (Annexin V staining, FACS). The settings on record: for Relative Apoptotic cell: mimic 10 nM, 10 uM 5-FU 24 h after transfection, then 48 hours, Annexin V, relative to scrambled control (=1), n=9. Summed up: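 EBV-negative AGS cells (2×10^5/well) were transfected with 10 nM synthetic miRNA. Twenty-four hours later they received 10 uM 5-FU for 48 h at 37 °C. The apoptotic cell ratio was measured by PE Annexin V staining and FACS.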

For the next data set, the system named is 3′UTR of BIRC6. Kind of data set: Dual luciferase reporter assay (psiCHECK) in HEK293T, BIRC6 3'UTR. The settings on record: for renilla value: 48 hours. The source says:
(§1) For an miRNA target test, to psiCHECK, which is a luciferase vector (FIG. 9) specially designed for an miRNA target test including a firefly gene and a renilla gene in the same vector, a 3′UTR of the five genes shown in Table 5, which might be targeted by miR-BART15-3p, was individually cloned to prepare a vector for a target test for each of the genes.
(§2) HEK293T was divided into a 96-well plate such that 5×10^3 cells were allocated to each well, and miR-BART15-3p and a vector for a target test were transfected by using lipofectamine2000. Forty eight hours after the transfection, a dual luciferase reporter assay (Virology. 412(2), 392-400 (2011)) was performed to normalize the results with reference to firefly luciferase and observe a variation of the renilla luciferase gene expression. […] The renilla value was not decreased by […] which was formed by mutating a seed part of miR-BART15-3p (FIG. 10).
BIRC6 3′UTR included two target sites which might be hybridized with miR-BART15-3p. To verify whether these two sites are directly targeted by miR-BART15-3p, a point mutation was performed at a psiC-BIRC6 site which was seed-matched with miR-BART15-3p to prepare psiC-BIRC6m1 and psiC-BIRC6m2. Both of the sites were mutated to prepare psiC-BIRC6m1m2 (FIG. 11A).
HEK293T was divided into a 96-well plate such that 5×10^3 cells were allocated to each well, and miR-BART15-3p and a vector for a target test were transfected by using lipofectamine-2000. Forty eight hours after the transfection, a dual luciferase reporter assay (Virology. 412(2), 392-400 (2011)) was performed to normalize the results with reference to firefly luciferase and observe a variation of the renilla luciferase gene expression. The renilla value was not decreased in psiC-BIRC6m1 and psiC-BIRC6m1m2 by, while the renilla value was decreased in psiC-BIRC6m2 as in the case of psiC-BIRC6.
A general note: Reporter assays use an easily measured gene product as a stand-in for the process of interest.

Another data set has as its system 3′UTR of TAX1BP1. Kind of data set: Dual luciferase reporter assay (psiCHECK) in HEK293T, TAX1BP1 3'UTR. The settings on record: psiCHECK with TAX1BP1 3′UTR, 48 hours after transfection.
From the text: as §1, §2

In the next data set the test system is BIRC6 mRNA. Kind of data set: BIRC6 mRNA level by QRT-PCR. Conditions: AGS; 48 hours after transfection. The method, then:
(§3) miR-BART15-3p was transfected to AGS by using lipofectamine-2000. Forty eight hours after the transfection, the cells were harvested and a QRT-PCR and a Western blotting were performed (FIGS. 12A and 12B). The BIRC6 mRNA level was not changed in the AGS to which miR-BART15-3p was transfected, while the protein level was decreased.
(§4) An miR-BART15-3p inhibitor was transfected to AGS-EBV by using lipofectamine-2000. Forty eight hours after the transfection, the cells were harvested and a QRT-PCR and a Western blotting were performed (FIGS. 12C and 12D). The BIRC6 mRNA level was not changed in the AGS-EBV to which an miR-BART15-3p inhibitor was transfected, while the protein level was increased.

A further data set concerns BIRC6 protein. Kind of data set: BIRC6 protein level by Western blotting. Conditions: AGS; 48 hours after transfection; listed as miR-BART15-3p. The procedure: as §3, §4
A general note: Immunoblotting shows a protein as a band on a membrane.

The subject of a further data set is TAX1BP1 mRNA. Kind of data set: TAX1BP1 mRNA level by QRT-PCR. Conditions: AGS; after transfection; listed as miR-BART15-3p. The method, then: as §3
Different from BIRC6, the mRNA level of TAX1BP1 was decreased in the AGS to which miR-BART15-3p was transfected (FIG. 12E).

The mark [3] stands for this setting: AGS, mimic 10 nM in combination with 10 uM 5-FU.

With “BART15-3p: EBV BART miRNA mimic, double stranded RNA; sense SEQ NO: 15, antisense SEQ NO: 16 (sense GUCAGUGGUUUUGUUUCCUUGA; antisense UCAAGGAAACAAAACCACUGAC; chemistry not given here)”, the “ratio of sub G1 after the 5-FU treatment” value in the data set on AGS cell strain [1] (mimic 10 nM plus 10 uM 5-FU (Example 6)) is “greatly increased”. Further, the “percentage of sub G1” value in the data set with AGS cell strain [1] (mimic 10 nM transfected alone, versus scrambled control) is reported as “significantly higher”. Further, the “Relative Sub G1” value is 2.508 with AGS cell strain [1] and “increased” in the data set on AGS cell strain [1] (listed as 15-3p). Further, the “ratio of early apoptotic cell” value in the data set on AGS cell strain [2] (setting [3]) is “increased”; in the data set with AGS cell strain [2] (AGS, mimic 10 nM treated alone) it was “increased”. Besides, the “ratio of late apoptotic cell” value is “increased” with AGS cell strain [2] (setting [3]) and “increased” in the data set with AGS cell strain [2] (AGS, mimic 10 nM treated alone). The “degree of apoptosis, combination with 5-FU versus sum of single treatments” value in the data set on AGS cell strain [2] (AGS, mimic 10 nM plus 10 uM 5-FU) is on record as “synergetic effect”. In addition, the “Relative Apoptotic cell” value in the data set on AGS cell strain [2] (AGS) is recorded as 1.665; in the data set on AGS cell strain [2] (AGS, listed as 15-3p), “significantly higher”. For the same substance, the “effect on cell growth and apoptosis (summary statement)” value with AGS cell strain [2] (mimics transfected to AGS, tumor cell strain not infected with EBV) was “inhibit cell growth and promote apoptosis”. The renilla value result in the data set with 3′UTR of BIRC6 (psiC-BIRC6m1 (point mutation of site 1)) is “not decreased”; in the data set with 3′UTR of BIRC6 (psiC-BIRC6m1m2 (both sites mutated)), “not decreased”; in the data set on 3′UTR of BIRC6 (psiC-BIRC6m2 (point mutation of site 2)), “decreased”. In addition, the “renilla value (renilla luciferase, normalized to firefly)” value is “decreased” in the data set with 3′UTR of BIRC6 (psiCHECK with BIRC6 3′UTR (psiC-BIRC6), 48 hours after transfection, listed as miR-BART15-3p) and “decrease” in the data set on 3′UTR of TAX1BP1. Also, the “BIRC6 mRNA level” value with BIRC6 mRNA is listed as “not changed”. Further, in the data set with BIRC6 protein, the BIRC6 protein level entry is reported as “decrease”. In addition, the “mRNA level of TAX1BP1” value with TAX1BP1 mRNA is on record as “decrease”.

For the origin of these results see patent US9243247B2, “Composition for promoting apoptosis or inhibiting cell growth, comprising epstein-barr virus microrna” (Catholic University Industry Academic Cooperation Foundation, priority 2011, dated 2016).
